Like-named read-outs stand apart in the source and are kept apart here.
Tests used:
Caco-2 cells [1] = experiment: In vitro cytotoxicity (MTT) and live/dead assay; assay type: cell-based, human; settings: 0.01-1 mg/ml, 24 h
Experimental: In vitro cytotoxicity and live/dead assay. In vitro cytotoxicity was evaluated using MTT assay with Caco-2 cells. Caco-2 cells were seeded on 96-well plates at a density of 2×10^4 cells per well in Eagle's Minimum Essential Medium (EMEM) with 20% FBS and cultured in 5% CO2 atmosphere at 37° C. for 24 h. Then the cells were washed twice with HBSS and incubated with 100 μl of DSPE-PCB micelle or Polysorbate 80 solutions in EMEM with concentrations of 0.01, 0.1, and 1.0 mg/ml, respectively. After 24 h of incubation at 37° C., the DSPE-PCB micelle and Polysorbate 80 solution were replaced with 100 μL of MTT solution (0.5 mg/ml in HBSS), and the cells were incubated for an additional 4 h at 37° C. Subsequently, the supernatant was carefully removed and 150 μL of dimethyl sulfoxide (DMSO) was added to each well. The absorbance of the resultant solutions was measured at 570 nm using a microplate reader (Bio-Rad, USA). Untreated cells were used as negative control for 100% cell viability. Cell viability was expressed as percentage of absorbance relative to the control. Live/dead assay was conducted by staining the cells with 100 μL of PBS buffer containing 2 μM Calcein and 4 μM ethidiumhomodimer-1 (Live/Dead viability/cytotoxicity kit, Invitrogen, CA, USA). The cells were incubated at room temperature for 30 minutes and observed by the EVOS FL fluorescence microscope (AMG).

Caco-2 monolayers = experiment: Transepithelial electrical resistance (TEER) study
Experimental: Transepithelial electrical resistance (TEER) study. Caco-2 cells were suspended in EMEM supplemented with 20% FBS, and seeded at a density of 2×10^5 cells per well on Corning® Transwell polyester membrane cell culture inserts and incubated for 96 h. The TEER was monitored to confirm proper barrier formation and only monolayers with initial TEER values of at least 300Ω×cm^2 were used for TEER or molecular permeability experiments. Prior to the study, the medium in the apical and basolateral chambers was replaced with prewarmed EMEM. After equilibration at 37° C. for 30 min, the apical solution was replaced with Sodium decanoate, polysorbate 80 or DSPE-PCB (0.2% w/v) in EMEM. After incubation for 4 h, the TEER value of each insert was measured with EVOM2
Epithelial volt/ohmmeter to explore the integrity of the tight junction.

[2] = system: Caco-2 cells (PAT1 overexpression); experiment: Cell uptake of micelle/polystyrene nanoparticles (confocal, flow cytometry); assay type: cell-based, human
Experimental: Cell uptake of polystyrene nanoparticles for Caco-2 and 3T3 cells. Caco-2 human colon epithelial cells and NIH 3T3 mouse embryonic fibroblast cells were used as received from the American Type Culture Collection without further authentication, and were cultured in Dulbecco's Modified Eagle's Medium (DMEM) and Eagle's Minimum Essential Medium (EMEM) at 37° C. in a 5% CO2 environment respectively. […] Cells were seeded in a 12-well plate at a density of 1×10^5 cells per well overnight, washed twice with pre-wared PBS, and incubated with DSPE-PCB/polystyrene nanoparticles in culture medium at 37° C. for 2 h. […] Cellular uptake of DSPE-PCB/polystyrene nanoparticles in different groups was examined by an Zeiss LSM 780 confocal laser scanning microscope. The Z-stack method was used for three-dimensional visualization, where the section thickness was 2.5 μm, the step interval was 2 m, and the total z-stack length was 44 μm (23 slices). Fluorescent signal was quantified by using the image J software. Cellular uptake was also quantitively measured with flow cytometry (BD FACSAria II flow cytometer) and analyzed with FlowJo X software.

[3] = system: intestine epithelial tight junctions; settings: mouse, in vivo
Experimental: (§1) 1 h post ileum injection of the formulations, mice were euthanized and small parts of ileum (5×5 mm) near to the injection site were collected and washed with PBS. The samples were continuously fixed in 2.5% glutaraldehyde+2.5% paraformaldehyde in 0.1M PBS buffer and 4% osmium tetroxide solution and transferred into Beem® embed capsule with micro-embed resin added to embed samples. The obtained blocks were further sectioned with ultra-microtomy to obtain sections with thickness of ˜70 nm. These sections were retrieved via copper grid and stained with 1% lead citrate and 4% uranyl acetate separately, and then visualized under a JEM-100CX II electron microscope operated at 100 kV.

Caco-2 cells [4] = system: Caco-2 cells
[5] = system: intestinal tight junctions; experiment: Lactulose-mannitol intestinal permeability test; assay type: in vivo; settings: healthy and diabetic mice, 1 h after ileum co-injection, vs control without micelles
Experimental: The lactulose-mannitol intestinal permeability test. Healthy and diabetic mice remained fasted for 8 h and were restricted from water for 3 h before the experiment. Then mice received 500 μL water through oral gavage. 1 h later, the lactulose, mannitol, and free micelles were co-administered via ileum injection at the dose of 40/8/5.2 mg/ml (50 μL) and the wound is closed with wound clips. 1 h post ileum injection, the urine was collected, and the ileum tissue surrounding the injection site was collected for TEM imaging. The concentrations of lactulose and mannitol were measured using LC-MS-MS, with a mobile phase of 10 mM ammonium formate in water and acetonitrile (90:10), and an Agilent advanced bio glucan mapping column (2.1×100 mm×2.7 μm) (precursor and product: mannitol 180.7→89; lactulose 341.2→160.8).

healthy mice = experiment: Long-term safety of repeated consecutive dosing; settings: for serum endotoxin and pro-inflammatory cytokines (TNF-α, IFN-γ, IL-6): healthy mice, oral gavage twice daily 14 days, day 0 and 14, before and 1 h after dose
Experimental: Long-term safety of repeated consecutive dosing. […] At day 14, the lactulose/mannitol experiment was conducted to examine potential tight junction opening through the lactulose-mannitol intestinal permeability test. In addition, the ileum tissue was collected and fixed in 10% zinc fixative (BD Pharmingen™), dehydrated in ethanol, and embedded in paraffin. Five-μm cross-sections of intestine tissue were deparaffinized, rehydrated, and stained with Hematoxylin and Eosin. Histological morphology was examined using an EVOS XL Core Cell Imaging microscope. In addition, healthy mice received the same oral administered with DSPE-PCB micelle, saline, Polysorbate 80, or sodium decanoate twice daily for 14 consecutive days (the same dose as above). On day 0 and 14, before and 1 h after the oral administration, blood serum was collected and the endotoxin and pro-inflammatory cytokines (IFN-γ, IL-1β, ILL-4, IL-6, IL-12, TNF-α) were measured with Pierce LAL Chromogenic Endotoxin Quantitation Kit and the mouse magnetic Luminex® assays (Lot No: L131929).

[6] = assay type: in vitro ADME, porcine
Experimental: Tracking nanoparticle diffusion in mucus. Nanoparticle diffusion behavior in mucus was studied by modifying methods as described in Lai, S. K. et al. P Natl Acad Sci USA 104, 1482-1487 (2007) and Olmsted, S. S. et al. Biophys J 81, 1930-1937 (2001). Mucus was reconstituted by dissolving porcine stomach mucin in phosphate buffered saline (PBS) at 30 mg/ml. Nanogels were added into 100 μl mucus to reach a final concentration of 3% vol/vol (final particle concentration, 8.25×10^−7 wt/vol) and incubated for 1 h on a Nunc™ glass bottom dish (0.17 mm thickness for the inside bottom glass) before observation. Movies were captured with 64×oil-immersion objective in a spinning disc confocal microscope (Yokogawa CSU-X1M 5000 microlens, Zeiss LSM 800). For each nanogel sample, trajectories of n=50 particles were analyzed, and three samples were examined for each type of nanogel. MSD was calculated with the equation of MSD=<|r(t)-r(0)|^2> at a temporal resolution of 200 ms for 20 s.

[7] = system: intestine epithelial tight junctions; experiment: TEM imaging of tight junctions after ileum injection; settings: 1 h post ileum injection
Experimental: as §1

[8] = system: streptozotocin (STZ)-induced C57BL/6 diabetic mice; experiment: Blood glucose lowering on STZ-induced diabetic mice (ileum injection or oral gavage); assay type: in vivo; settings: ileum injection, 20 IU/Kg, compared with saline baseline
Experimental: Animals and diabetes induction. All animal experiments were performed according to the National Institute of Health (NIH) guidelines for animal research under a protocol approved by the Institutional Animal Care and Use Committee (IACUC) at Wayne State University. To establish streptozotocin (STZ)-induced diabetic mice model, healthy mice (C57BL/6J, male, 6-8 weeks of age, Jackson Lab) received a daily intraperitoneal injection of 5 mg/ml STZ at 50 mg/kg body weight for 5 consecutive days. 17 days after the first injection, body weight and blood glucose were measured to confirm the diabetic status. Diabetic mice with blood glucose above 300 mg/dL were selected for further in vivo test. To establish STZ-rat model, healthy rats (Sprague Dawley rat, male, ˜180 g, Charles River) received a one-time intraperitoneal injection of 65 mg/kg STZ. 10 days after injection, diabetic rats with blood glucose above 300 mg/dL were selected for further in vivo test.
Ileum injection surgery. Mice received buprenorphine SR subcutaneously and surgical anesthesia was managed by isoflurane inhalation. The surgical site (abdomen) was shaved and prepped with three alternating scrubs of betadine and alcohol. On prepped animal, a single incision (1.5-2 cm) was made through abdomen skin. About 0.5-1 cm ileum of intestine was pulled-out from the enterocoelia. […]

Caco-2 cells [9] = experiment: LDH leakage assay; settings: % of untreated cell negative control; 1% with sonication, complete lysis, positive control

## Polysorbate 80
Caco-2 cells [1]
  cytotoxicity (cell viability, MTT, live/dead staining): no significant cytotoxicity
Caco-2 monolayers; Caco-2
  TEER / permeability of Caco-2 cell layers: drastically decreased TEER values
[2]; Caco-2 cells compared with 3T3 cells, 2 h, 37 C
  cellular uptake: no observable polysorbate 80 uptake
[3]
  tight junction morphology (TEM): severe tight junction opening
Caco-2 cells [4]
  lactate dehydrogenase (LDH) release: no significant lactate dehydrogenase (LDH) release
[5]
  excretion ratio of lactulose to mannitol (L/M) in urine: drastically higher L/M ratio values
Healthy mice
  serum endotoxin and pro-inflammatory cytokines (TNF-α, IFN-γ, IL-6): observable increase

## DSPE lipid conjugated with poly(N-methacryloyloxyethyl-N,N-dimethylammonium-α-N-methylcarboxybetaine) [DSPE-PCB micelles]
[6]
  MSD relative to Polysorbate 80 micelles: ~12 times
Caco-2 monolayers; Caco-2
  TEER / permeability of Caco-2 cell layers: did not increase the permeability of Caco-2 cell layers
[3]
  tight junction morphology (TEM): intact tight junctions
Healthy mice; mouse, in vivo, po
  small intestine histology (H&E) on day 14: no significant structural damage
  tight junction opening, urine lactulose/mannitol test at day 14: no significant tight junction opening

## CCCCCCCCCC(=O)[O-].[Na+] [sodium decanoate]
[7]
  tight junction morphology (TEM): even more severe tight junction opening
Caco-2 monolayers; 0.2% w/v, 4 hours
  TEER / permeability of Caco-2 cell layers: drastically decreased TEER values
[5]
  excretion ratio of lactulose to mannitol (L/M) in urine: drastically higher L/M ratio values
Healthy mice
  serum endotoxin and pro-inflammatory cytokines (TNF-α, IFN-γ, IL-6): observable increase

## Native insulin: native insulin not encapsulated by any carrier
[8]
  glucose-lowering effect: hardly achieved any glucose-lowering effect

## Triton X-100
Caco-2 cells [9]
  LDH leakage level: 240%

## N[C@@H](Cc1c[nH]c2ccccc12)C(=O)O [L-tryptophan]
[2]; pretreatment 5 mg/ml, 1 h
  inhibition of Caco-2 uptake of DSPE-PCB micelle particles by PAT1 substrates: significantly inhibited
